Data from US12643912B2, “Macrocyclic compounds, a process for their preparation and pharmaceutical compositions containing them” (LES LABORATOIRES SERVIER, priority 2020, dated 2026).

Experiments:
Keap1 (A321-C624) (h) = molecular target: T1, Keap1 (A321-C624) (h) (Homo sapiens, UniProt Q14145); assay: Surface Plasmon Resonance binding assay to Kelch domain of KEAP1; settings: Biacore T200, 25° C., immobilized His-Thromb-KEAP1(A321-C624), single cycle kinetics, KD=kd/ka from 1:1 fit; read-out: Keap1 (A321-C624) (h) direct/SPR (KD)
T1 construct: His-Thromb-KEAP1(A321-C624) acquired from Novalix (batch PU-P01) was immobilized covalently by amine coupling; His tag (N); thrombin cleavage site (Thromb) (N); purchased Novalix batch PU-P01
In short: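 His-Thromb-KEAP1(A321-C624) amine-coupled on CM5 chip to 1250 RU; amine blank reference. Run at 25° C in HEPES pH 7.4, 150 mM NaCl, 3 mM EDTA, 1 mM TCEP, 0.05% P20, 5% DMSO; 180 s association, 720 s dissociation, 50 μL/min. KD = kd/ka from 1:1 kinetic fit, double-referenced, DMSO solvent-corrected.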

[1] = tested on: Nrf2 (Keap1-NRF2 nuclear translocation); assay: U2OS translocation assay (PathHunter U2OS Keap1-NRF2 Nuclear Translocation Cell Line); assay type: cell-based; settings: Homo sapiens, U2OS, 3 h, read-out: CELLULAR U2OS EC50 (nM), U2OS Keap1-NRF2 nuclear translocation cells, 3 h incubation, luminescence, normalized between 1% DMSO and 10 μM andrographolide
In short: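 Enzyme-fragment complementation read-out: luminescence after 60 min of detection reagent at room temperature, following a 3 h, 37° C compound exposure of engineered U2OS Keap1-NRF2 translocation cells (1% FBS medium). Signal scaled from 1% DMSO basal to 10 μM andrographolide maximum.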

T1 sequence (Q14145 321-624): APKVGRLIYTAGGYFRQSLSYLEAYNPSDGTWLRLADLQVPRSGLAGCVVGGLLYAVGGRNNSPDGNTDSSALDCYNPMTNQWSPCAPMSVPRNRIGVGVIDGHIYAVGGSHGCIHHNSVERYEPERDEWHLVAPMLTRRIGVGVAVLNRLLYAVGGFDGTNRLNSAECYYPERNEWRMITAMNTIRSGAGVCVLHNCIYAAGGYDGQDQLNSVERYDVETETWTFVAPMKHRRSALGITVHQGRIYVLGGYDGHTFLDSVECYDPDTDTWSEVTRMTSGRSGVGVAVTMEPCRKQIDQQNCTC

Structure (SMILES) | Kd (Keap1 (A321-C624) (h)) | EC50 [1]
Cc1ccc2cc1[C@@H](C)N1Cc3cc(ccc3OS1(=O)=O)OCCCN(C)CCn1nnc3c(C)c(ccc31)[C@H]2CC(=O)O [Example 21a, [(2R,8S)-2,4,19,33-Tetramethyl-29,29-dioxo-23,28-dioxa-29λ^6-thia-1,14,15,16,19-pentaazahexacyclo[22.5.3.1^3,70.1^9,130.0^12,160.0^27,31]tetratriaconta-3(34),4,6,9(33),10,12,14,24,26,31-decaen-8-yl]acetic acid] | 2.55 nM | 10.9 nM
Cc1ccc2cc1[C@@H](C)N1Cc3cc(ccc3OS1(=O)=O)OCCCN(C)CCn1nnc3c(C)c(ccc31)[C@@H]2CC(=O)O [Example 21b, [(2R,8R)-2,4,19,33-tetramethyl-29,29-dioxo-23,28-dioxa-29λ^6-thia-1,14,15,16,19-pentaazahexacyclo[22.5.3.1^3,70.1^9,130.0^12,160.0^27,31]tetratriaconta-3(34),4,6,9(33),10,12,14,24,26,31-decaen-8-yl]acetic acid] | 20.8 nM | 166 nM
Cc1ccc2cc1[C@@H](C)N1Cc3cc(ccc3OS1(=O)=O)OCCOCCCn1nnc3c(C)c(ccc31)[C@H]2CC(=O)O [Example 26a, [(2R,8S)-2,4,33-Trimethyl-29,29-dioxo-20,23,28-trioxa-29λ^6-thia-1,14,15,16-tetraazahexacyclo[22.5.3.1^3,70.1^9,130.0^12,160.0^27,31]tetratriaconta-3(34),4,6,9(33),10,12,14,24,26,31-decaen-8-yl]acetic acid] | 3.4 nM | 11.3 nM
Cc1ccc2cc1[C@@H](C)N1Cc3cc(ccc3OS1(=O)=O)OCCCOCCn1nnc3c(C)c(ccc31)[C@H]2CC(=O)O [Example 27b, [(2R,8S)-2,4,33-trimethyl-29,29-dioxo-19,23,28-trioxa-29λ^6-thia-1,14,15,16-tetraazahexacyclo[22.5.3.1^3,70.1^9,130.0^12,160.0^27,31]tetratriaconta-3(34),4,6,9(33),10,12,14,24,26,31-decaen-8-yl]acetic acid] | 3.56 nM | 16.2 nM
COc1ccc2cc1[C@@H](C)N1Cc3cc(ccc3OS1(=O)=O)OCCCCn1nnc3c(C)c(ccc31)[C@@H]2CC(=O)O [Example 28a, [(2R,8R)-4-Methoxy-2,31-dimethyl-27,27-dioxo-21,26-dioxa-27λ^6-thia-1,14,15,16-tetraazahexacyclo[20.5.3.1^3,70.1^9,130.0^12,160.0^25,29]dotriaconta-3(32),4,6,9(31),10,12,14,22,24,29-decaen-8-yl]acetic acid] | 23.4 nM | 611 nM
COc1ccc2cc1[C@@H](C)N1Cc3cc(ccc3OS1(=O)=O)OCCCCn1nnc3c(C)c(ccc31)[C@H]2CC(=O)O [Example 28b, [(2R,8S)-4-methoxy-2,31-dimethyl-27,27-dioxo-21,26-dioxa-27λ^6-thia-1,14,15,16-tetraazahexacyclo[20.5.3.1^3,70.1^9,130.0^12,160.0^25,29]dotriaconta-3(32),4,6,9(31),10,12,14,22,24,29-decaen-8-yl]acetic acid] | 3.25 nM | 15.3 nM
Cc1ccc2cc1[C@@H](C)N1Cc3cc(ccc3OS1(=O)=O)OCCN(C)CCCn1nnc3c(C)c(ccc31)[C@H]2CC(=O)O [Example 34a, [(2R,8S)-2,4,20,33-tetramethyl-29,29-dioxo-23,28-dioxa-29λ^6-thia-1,14,15,16,20-pentaazahexacyclo[22.5.3.1^3,70.1^9,130.0^12,160.0^27,31]tetratriaconta-3(34),4,6,9(33),10,12,14,24,26,31-decaen-8-yl]acetic acid] | 0.49 nM | 2.66 nM
Cc1ccc2cc1[C@@H](C)N1Cc3cc(ccc3OS1(=O)=O)OCCN(C)CCCn1nnc3c(C)c(ccc31)[C@@H]2CC(=O)O [Example 34b, [(2R,8R)-2,4,20,33-tetramethyl-29,29-dioxo-23,28-dioxa-29λ^6-thia-1,14,15,16,20-pentaazahexacyclo[22.5.3.1^3,70.1^9,130.0^12,160.0^27,31]tetratriaconta-3(34),4,6,9(33),10,12,14,24,26,31-decaen-8-yl]acetic acid] | 1.85 nM | 31.1 nM

Further molecules by falling Kd (Keap1 (A321-C624) (h)), results first:

Kd (Keap1 (A321-C624) (h)) | Structure (SMILES) | EC50 [1]
50.5 nM | COc1cc2cc3c1OS(=O)(=O)N(C3)[C@H](C)c1cc(ccc1C)[C@@H](CC(=O)O)c1ccc3c(nnn3CCCCO2)c1C [Example 23a, [(2R,8R)-24-Methoxy-2,4,31-trimethyl-27,27-dioxo-21,26-dioxa-27λ^6-thia-1,14,15,16-tetraazahexacyclo[20.5.3.1^3,70.1^9,130.0^12,160.0^25,29]dotriaconta-3(32),4,6,9(31),10,12,14,22,24,29-decaen-8-yl]acetic acid] | 3160 nM
14.2 nM | Cc1ccc2cc1[C@@H](C)N1Cc3cc(ccc3OS1(=O)=O)OCCCOCCn1nnc3c(C)c(ccc31)[C@@H]2CC(=O)O [Example 27a, [(2R,8R)-2,4,33-Trimethyl-29,29-dioxo-19,23,28-trioxa-29λ^6-thia-1,14,15,16-tetraazahexacyclo[22.5.3.1^3,70.1^9,130.1^12,160.0^27,31]tetratriaconta-3(34),4,6,9(33),10,12,14,24,26,31-decaen-8-yl]acetic acid] | 93.1 nM
12.2 nM | Cc1ccc2cc1[C@@H](C)N1Cc3cc(ccc3OS1(=O)=O)OCCOCCCn1nnc3c(C)c(ccc31)[C@@H]2CC(=O)O [Example 26b, [(2R,8R)-2,4,33-trimethyl-29,29-dioxo-20,23,28-trioxa-29λ^6-thia-1,14,15,16-tetraazahexacyclo[22.5.3.1^3,70.1^9,130.0^12,160.0^27,31]tetratriaconta-3(34),4,6,9(33),10,12,14,24,26,31-decaen-8-yl]acetic acid] | 88.8 nM
8.8 nM | COc1cc2cc3c1OS(=O)(=O)N(C3)[C@H](C)c1cc(ccc1C)[C@H](CC(=O)O)c1ccc3c(nnn3CCCCO2)c1C [Example 23b, [(2R,8S)-24-methoxy-2,4,31-trimethyl-27,27-dioxo-21,26-dioxa-27λ^6-thia-1,14,15,16-tetraazahexacyclo[20.5.3.1^3,70.1^9,130.0^12,160.0^25,29]dotriaconta-3(32),4,6,9(31),10,12,14,22,24,29-decaen-8-yl]acetic acid] | 344 nM
5.51 nM | COc1ccc2cc1[C@@H](C)N1Cc3cc(ccc3OS1(=O)=O)OCCCCCCn1nnc3c(C)c(ccc31)[C@H]2CC(=O)O [Example 40a, [(2R,8S)-4-methoxy-2,33-dimethyl-29,29-dioxo-23,28-dioxa-29λ^6-thia-1,14,15,16-tetraazahexacyclo[22.5.3.1^3,70.1^9,130.0^12,160.0^27,31]tetratriaconta-3(34),4,6,9(33),10,12,14,24,26,31-decaen-8-yl]acetic acid] | 9.72 nM
2.3 nM | Cc1ccc2cc1[C@@H](C)N1Cc3cc(ccc3OS1(=O)=O)OCCCCCn1nnc3c(C)c(ccc31)[C@@H]2CC(=O)O [Example 20b, [(2R,8R)-2,4,32-trimethyl-28,28-dioxo-22,27-dioxa-28λ^6-thia-1,14,15,16-tetraazahexacyclo[21.5.3.1^3,70.1^9,130.0^12,160.0^26,30]tritriaconta-3(33),4,6,9(32),10,12,14,23,25,30-decaen-8-yl]acetic acid] | 131 nM
